Data on 4 compounds can be found in US12410155B2, “Salt form and crystal form of tetrahydrocyclohepta indazole compound” (Zhejiang Yangli Pharmaceutical Technology Co., Ltd., priority 2021, dated 2025).

Read-outs that look alike come from different tables or passages of the source.

The nature of series [1]: Pharmacokinetic study in Beagle dogs. The class given is in vivo. The note with it: both sexes, dog, plasma, Beagles. The method, then:
(4) Pharmacokinetic Study in Beagle Dogs
Objective: To determine the concentration of the test compound in plasma at various time points after intravenous and intragastric administration in male and female Beagle dogs using the LC/MS/MS method.
An appropriate amount of the sample was weighed and prepared into 0.2 mg/mL and 0.3 mg/mL solutions, stirred until a clear solution was obtained, with 20% SBE-β-CD as the vehicle.
Administration: After an overnight fast, the IV group received intravenous administration at a dose of 0.3 mg/kg; the PO group received intragastric administration at a dose of 1 mg/kg.
For the intravenous injection group, Beagle dogs were administered the test compound, and blood samples (800 μL) were collected from the peripheral vein at 0.25, 0.5, 1, 2, 4, 6, 8, 24, 32, 48, 72, and 96 hours post-administration. The samples were placed into commercially available anticoagulant tubes pre-filled with EDTA-K2. For the intragastric administration group, after administering the test compound, blood samples (800 μL) were collected from the peripheral vein at 0.25, 0.5, 1, 2, 4, 6, 8, 24, 32, 48, 72, and 96 hours. These samples were also placed into commercially available anticoagulant tubes pre-filled with EDTA-K2. Following centrifugation (3,200 g, 2-8° C., 10 minutes), the plasma was transferred to pre-chilled centrifuge tubes, flash-frozen in dry ice, and stored in an ultra-low temperature freezer at −60° C. or lower until LC-MS/MS analysis. Animals were allowed to eat 4 hours post-dosing. The concentration of the test compound in the plasma of Beagle dogs after intravenous and intragastric administration was determined using the LC/MS/MS method.

A short description of series [2]: Pharmacokinetic study in rats. Format: in vivo. The note with it: both sexes, Sprague-Dawley, rat, plasma. The method, then:
(3) Pharmacokinetic Study in Rats
Objective: To determine the concentration of the test compound in plasma at various time points after intravenous and intragastric administration in male and female Sprague-Dawley rats using the LC/MS/MS method.
An appropriate amount of the sample was weighed and prepared into a 0.2 mg/ml solution, and stirred until a clear solution was obtained, with 20% SBE-β-CD as the vehicle.
Administration: After an overnight fast, the IV group received intravenous administration at a dose of 1 mg/kg; the PO group received intragastric administration at a dose of 2 mg/kg.
For the intravenous injection group, male and female Sprague-Dawley rats were administered the test compound, and blood samples (200 μL) were collected from the jugular vein at 0.0830, 0.250, 0.500, 1.00, 2.00, 4.00, 6.00, 8.00, 24.0, 32.0, and 48.0 hours post-administration. The samples were placed into commercially available anticoagulant tubes pre-filled with EDTA-K2. For the intragastric administration group, after administering the test compound, blood samples (200 μL) were collected from the jugular vein at 0.250, 0.500, 1.00, 2.00, 4.00, 6.00, 8.00, 24.0, 32.0, and 48.0 hours. These samples were also placed into commercially available anticoagulant tubes pre-filled with EDTA-K2. Following centrifugation (3,200 g, 4° C., 10 minutes), the plasma was transferred to pre-chilled centrifuge tubes, flash-frozen in dry ice, and stored in an ultra-low temperature freezer at −60° C. or lower until LC-MS/MS analysis. Animals were allowed to eat 4 hours post-dosing. The concentration of the test compound in the plasma of rats after intravenous and intragastric administration was determined using the LC/MS/MS method.

The test system of series [3] is human breast cancer MCF-7 cell subcutaneous xenograft tumor. Format: in vivo. Conditions: for Tumor volume (mm^3) (Day 0): Day 0 (at grouping); for RTV (Day 21) / Tumor volume (mm^3) (Day 21) / T/C (%) / TGI (%): Day 21. The method, then: (1) In Vivo Pharmacodynamic Study of Breast Cancer MCF-7 Cell Subcutaneous Xenograft Tumor BALB/c Nude Mouse Model
Objective: This study aimed to evaluate the in vivo efficacy of the crystal form C of the compound of formula (I) using a human breast cancer MCF-7 cell subcutaneous xenograft tumor model in nude mice.
Routine digestion with trypsin-EDTA (Gibco) was performed twice a week for passaging.
Cell inoculation: Estrogen pellets (0.36 mg/pellet; IRA) were subcutaneously inoculated into the left dorsum of each mouse. Three days later, 0.2 mL (1×10^7 cells) of MCF-7 cells (mixed with Matrigel; CORNING, volume ratio 1:1) were subcutaneously inoculated into the right dorsum of each mouse. When the average tumor volume reached 188 mm^3, the mice were grouped and the administration of compounds began.
An appropriate amount of the compound of formula (I) was weighed and prepared into 0.1, 0.3, 1, and 3 mg/mL solutions. […] Fulvestrant was used as the commercially available injection Faslodex.
The antitumor efficacy of the compounds was evaluated using Tumor Growth Inhibition (TGI, %) and relative tumor proliferation rate (T/C, %).
The Q value of combined medication index was calculated using the Jin formula. The criteria for judgment were as follows: a Q value of 0.85 to 1.15 indicated […] (+); a Q value>1.15 to 2.0 indicated enhancement (++); a Q value<0.85 to 0.55 indicated antagonism (−); and a Q value<0.55 indicated significant antagonism (−−). The formula was Q=Ea+b/(Ea+Eb−Ea×Eb), where Ea+b was the tumor inhibition rate of the combined medication group, and Ea and Eb were the tumor inhibition rates of the single medication groups, respectively.
Inter-group comparisons were analyzed using one-way ANOVA. […] A p value<0.05 was considered to indicate a significant difference.

The nature of series [4]: Pharmacokinetic study in mice. The class given is in vivo. Conditions: female, Balb/c, mouse, plasma. The method, then:
(2) Pharmacokinetic Study in Mice
Objective: To determine the concentration of the test compound in plasma at various time points after intravenous and intragastric administration in female Balb/c mice using the LC/MS/MS method. To investigate the pharmacokinetic behavior of the crystal form C of the compound of formula (I) in mice and to evaluate its pharmacokinetic characteristics.
Administration: After an overnight fast, the IV group received intravenous administration at a dose of 5 mg/kg; the PO group received intragastric administration at a dose of 10 mg/kg.
For the intravenous injection group, female Balb/c mice were administered the test compound, and blood samples (30 μL) were collected from the saphenous vein at 0.0833, 0.25, 0.5, 1, 2, 4, 8, and 24 hours post-administration. The samples were placed into commercially available anticoagulant tubes pre-filled with EDTA-K2. For the intragastric administration group, after administering the test compound, blood samples (30 μL) were collected from the jugular vein at 0.25, 0.5, 1, 2, 4, 8, 12, and 24 hours. These samples were also placed into commercially available anticoagulant tubes pre-filled with EDTA-K2. Following centrifugation (3,200 g, 4° C., 10 minutes), the plasma was transferred to pre-chilled centrifuge tubes, flash-frozen in dry ice, and stored in an ultra-low temperature freezer at −60° C. or lower until LC-MS/MS analysis. Animals were allowed to eat 4 hours post-dosing. The concentration of the test compound in the plasma of mice after intravenous and intragastric administration was determined using the LC/MS/MS method.

The subject of the next series is breast cancer. Conditions: intramuscular injection; cited from earlier work.
For series [5] the following is noted: in vivo; cited from earlier work.

As usually defined, the AUC(0-t) is exposure summed from dosing to a finite time, without extrapolation to infinity. Read a high AUC(0-t) as high exposure. The term clearance denotes the volume of plasma or blood freed of the substance per unit of time. A high value points to a high capacity for elimination. The term half-life denotes how long it takes for the measured level to halve. The term Cmax denotes the highest concentration seen after dosing. Usually bioavailability stands for dose-corrected exposure relative to a reference, in per cent.

As for `CS(=O)(=O)O.FCCCN1CC[C@H](Nc2cnc(C3=C(CC(F)(F)F)CCCc4c3ccc3[nH]nc(F)c43)cn2)C1`, in series [1] (IV, 0.3 mg/kg), the exposure AUC(0-t) worked out at 1.31 µM·h, the clearance came to 3.8 mL/min/kg and the half-life was 24.2 h. The Vd in series [1] (IV, 0.3 mg/kg, read-out: Vdss) worked out at 7.48 L/kg. In series [1] (PO, 1 mg/kg), this compound gave an AUC(0-t) of 2.27 µM·h, a Cmax of 61 nM, a bioavailability of 52% and a half-life of 21.6 h. In addition, in series [2] (IV, 1 mg/kg), the AUC(0-t) is 1.71 µM·h, the clearance turned out to be 22.1 mL/min/kg and the half-life is 10.6 h. Besides, the Vd in series [2] (IV, 1 mg/kg, read-out: Vdss) was found to be 13.6 L/kg. In series [2] (PO, 2 mg/kg), this compound gave an AUC(0-t) of 1.63 µM·h, a maximum concentration (Cmax) of 87.7 nM, a bioavailability of 47.7% and a half-life of 10.3 h.
Take `FCCCN1CC[C@H](Nc2cnc(C3=C(CC(F)(F)F)CCCc4c3ccc3[nH]nc(F)c43)cn2)C1`: in series [3] (1 mg/kg, PO, QD), the ORR % was determined as 0%, the “Tumor volume (mm^3) (Day 0)” value is 188 ± 12 mm^3, the “RTV (Day 21)” value is on record as 1.82 ± 0.12 and the “Tumor volume (mm^3) (Day 21)” value is 340 ± 30 mm^3. In series [3] (3 mg/kg, PO, QD), the DCR % is 100%, the ORR % was 0%, the “Tumor volume (mm^3) (Day 0)” value was determined as 188 ± 13 mm^3 and the “RTV (Day 21)” value is reported as 0.99 ± 0.11. In addition, the “Tumor volume (mm^3) (Day 21)” value in series [3] (3 mg/kg, PO, QD) is reported as 179 ± 14 mm^3. For the same compound, in series [3] (10 mg/kg, PO, QD), the “Tumor volume (mm^3) (Day 0)” value came to 188 ± 12 mm^3, the “RTV (Day 21)” value is given as 0.75 ± 0.09 and the “Tumor volume (mm^3) (Day 21)” value stood at 140 ± 18 mm^3. In series [3] (30 mg/kg, PO, QD), the “Tumor volume (mm^3) (Day 0)” value is 188 ± 12 mm^3, the “RTV (Day 21)” value is on record as 0.64 ± 0.07 and the “Tumor volume (mm^3) (Day 21)” value is recorded as 121 ± 13 mm^3. For the same compound, the “Tolerability in tumor-bearing mice” value in series [3] (1 to 30 mg/kg, PO, QD) is given as “tolerated the crystal form C of the compound of formula (I) well”. In series [4] (IV, 5 mg/kg), this compound gave an exposure AUC(0-t) of 5.27 µM·h, a clearance of 30.2 mL/min/kg and a half-life of 5.16 h. In addition, in series [4] (IV, 5 mg/kg, read-out: Vdss), the Vd worked out at 11.1 L/kg. In series [4] (PO, 10 mg/kg), this compound gave an exposure AUC(0-t) of 5.86 µM·h, a Cmax of 779 nM, a bioavailability of 55.4% and a half-life of 4.72 h.
Take `C[C@]12CC[C@@H]3c4ccc(O)cc4C[C@@H](CCCCCCCCC[S+]([O-])CCCC(F)(F)C(F)(F)F)[C@H]3[C@@H]1CC[C@@H]2O` (stereo partly drawn) [Fulvestrant, reference compound]: in series [3] (5 mg/mouse, SC, QW), the DCR % turned out to be 0%, the “Tumor volume (mm^3) (Day 0)” value is reported as 188 ± 12 mm^3, the “RTV (Day 21)” value is 3.12 ± 0.31 and the “T/C (%)” value was found to be 46.9%. In series [3] (5 mg/mouse, SC, QW), the “TGI (%)” value stood at 60.9% and the “Tumor volume (mm^3) (Day 21)” value is listed as 593 ± 79 mm^3. In series [3] (5 mg/mouse, SC, QW, listed as fulvestrant), the “Tumor volume (mm^3) (Day 21)” value amounted to 593 mm^3. For the same compound, in the series with breast cancer, the “breast cancer patients showing a clinical response” value was “about 50%”. Also, in series [5], the oral bioavailability entry is given as “near-zero”.
Regarding `CC(=O)c1c(C)c2cnc(Nc3ccc(N4CCNCC4)cn3)nc2n(C2CCCC2)c1=O` [Palbociclib, reference compound], in series [3] (25 mg/kg, PO, QD), the DCR % is 12.5%, the ORR % is reported as 0%, the “Tumor volume (mm^3) (Day 0)” value was 188 ± 12 mm^3 and the “RTV (Day 21)” value is on record as 4.26 ± 0.51. For the same compound, in series [3] (25 mg/kg, PO, QD), the “T/C (%)” value turned out to be 64.0%, the “TGI (%)” value is 42.8% and the “Tumor volume (mm^3) (Day 21)” value stood at 781 ± 77 mm^3. Further, the “Tumor volume (mm^3) (Day 21)” value in series [3] (25 mg/kg, PO, QD, listed as palbociclib) was determined as 781 mm^3.
